The values that follow come from patent EP2481744A1, “Aromatic bis-phosphoramidate additives as flame retardants for polymers” (EMPA Eidgenössische Materialprüfungs- und Forschungsanstalt, priority 2011, dated 2012).

The conditions of series [1]: deionized water, 16 h.
Series [2] can be described thus: Solubility in deionized water (shaking flask, phosphorus content by ICP-OES). The note with it: 0.5 gm in 50 ml deionized water, 21 °C, 16 hrs.

The structures appear in SMILES notation. In brackets after ≈: the same amount, converted by molar mass. Read-outs that look alike come from different tables or passages of the source.

On to `CCOP(=O)(Nc1ccc(NP(=O)(OCC)OCC)cc1)OCC` [p-PAPTEE, Phosphoramidic acid, 1,4-phenylenebis-, tetraethyl ester], for which the Solubility – broadly, the concentration that dissolves in the medium under given conditions – in series [1] was 47 µg/mL (≈ 124 µM). Molecule `CC(C)OP(=O)(Nc1ccc(NP(=O)(OC(C)C)OC(C)C)cc1)OC(C)C` [p-PAPTiPE, Phosphoramidic acid, 1,4-phenylenebis-, tetra isopropyl ester] came in with a Solubility in series [2] of 56 µg/mL (≈ 128 µM).
